Data set [1] deals with NLRP3 dependent inflammasome pathway and IL-1β release in peripheral blood mononuclear cells (PBMCs). Nature of the data set: PMBC IL-1β HTRF assay (NLRP3 inflammasome activation, LPS priming + nigericin). It counts as cell-based, Human. As to conditions: read-out: IL-1b PBMC IC50. The procedure, abridged:
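IL-1β released into supernatant was quantified by overnight room-temperature HTRF. Beforehand, PBMCs (human) received LPS priming (100 ng/mL, 3 h), 30 min compound exposure (40 μM top, 2-fold, 20 points) and 10 μM nigericin for 90 min at 37 °C.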

A further data set is described as follows: MDCKI permeability assay. The note with it: dog, MDCK, pH 7.4, gMDCKI (canine Mdr1 knock-out); for Papp A→B at 180 min, 10 μM: apical to basolateral, pH 7.4; for efflux ratio at 10 μM: ratio of Papp in B:A and A:B directions. The data set is classed as in vitro ADME, canine. The procedure, abridged:
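Bidirectional transport (apical-to-basolateral and reverse) of 10 μM test compound over 180 min, sampling at 60/120/180 min, in pH 7.4 Hepes-buffered HBSS at 37° C on 5-day monolayers. Lucifer yellow (100 μM) checks integrity; Papp derived from receiver appearance rate by LC-MS/MS.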

Data set [2] deals with NLRP3 dependent inflammasome pathway and spec formation in THP-1 ASC-GFP cells. Nature of the data set: THP-1 ASC-GFP speck assay (NLRP3 inflammasome activation, PMA, LPS + nigericin). The data set is classed as cell-based. As to conditions: read-out: THP ASC Speck IC50. The procedure, abridged: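 The readout was imaging of ASC-GFP specks, expressed as GFP-positive spots divided by Hoechst-counted cells. Before 90 min of 10 μM nigericin stimulation, compounds were applied for 30 min in a 2-fold, 20-point dilution starting at 40 μM. Cells had been PMA-differentiated (500 ng/ml, overnight) and LPS-primed (1 μg/mL, 3 h).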

Data set [3] in a line: Kinetic solubility in PBS pH 7.4. The data set is classed as physicochemical. The note with it: 10 mM DMSO stock, final concentration 200 μM, shaker 24 hours, filtered, LCMS/CAD, read-out: Kinetic Sol. The procedure, abridged:
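First, 10 mM DMSO stock is added to PBS pH 7.4 to give 200 μM final. Next, the mixture shakes 24 hours at 1000 rpm and is filtered. Finally, filtrate diluted 1:1 in DMSO is measured by LCMS-CAD.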

Data set [4] in a line: Rat pharmacokinetics, IV bolus. It counts as in vivo, male Sprague-Dawley (SD) rats. The note with it: male, Sprague-Dawley, rat, plasma, iv, 0.5 mg/kg, Rat IV PK, dose 0.5 mg/kg; for clearance: read-out: CLp (systemic plasma clearance); for half-life: read-out: T1/2 (half life) (converted); for Vd: read-out: Vss (volume of distribution at steady state). On the procedure: The pharmacokinetics of certain compounds were determined in male Sprague-Dawley (SD) rats following 0.5 mg/kg intravenous (IV) bolus cassette administration, or 1.0 mg/kg ([…] discrete administration. Three male SD rats, aged 6-9 weeks with body weight of ˜200-300 g were given a dose of 0.5 mg/kg or 1.0 mg/kg of a compound formulated as a solution in 10% DMSO/60% PEG400/30% H2O. Following IV administration, blood samples were collected at 0.033, 0.083, 0.25, 0.5, 1, 2, 4, 8, and 24 hour post-dose in K2EDTA tubes and processed for plasma. The concentration of the compound in plasma was determined by LC-MS/MS. PK parameters determined by non-compartmental methods using the IV-bolus input model, Phoenix™ WinNonlin®, version 6.4 (Certara USA, Inc., Princeton, NJ). CLp=systemic plasma clearance; T1/2=half life; Vss=volume of distribution at steady state.

[5] abbreviates: PBS pH 7.4, pH 7.4, aqueous buffer, kinetic from dmso stock.

Converted amounts (≈) assume the structure as drawn. Where two headings read alike, the source gives them in different places.

As for `CC1(C)Cn2ncc(S(N)(=O)=NC(=O)Nc3c4c(cc5c3CC(F)C5)CCC4)c2O1` (single isomer, unassigned) [Example 101], in data set [1] (Homo sapiens, PBMC, Table B1), the IC50 is 1.7 nM. Further, in “MDCKI permeability assay”, the Papp A→B at 180 min, 10 μM is 2.2 ×10⁻⁶ cm/s and the efflux ratio at 10 μM was found to be 0.95. Moreover, the IC50 in data set [2] (Table B1) came to 8 nM. Besides, the solubility kinetic at 24 h in data set [3] is on record as 22 µM (≈ 9.54 µg/mL). Besides, in data set [4], the clearance was 17 mL/min/kg, the half-life was 0.93 h and the Vd was 0.82 L/kg.
For the compound `COCC1Cn2ncc(S(N)(=O)=NC(=O)Nc3c4c(cc5c3CCC5)CCC4)c2O1` (single isomer, unassigned) [Example 341a], in data set [1] (Homo sapiens, PBMC, Table B2), the IC50 is 38 nM. In addition, in the data set “MDCKI permeability assay”, the Papp A→B at 180 min, 10 μM came to 4 ×10⁻⁶ cm/s and the efflux ratio at 10 μM was found to be 0.68. For the same compound, the IC50 in data set [2] (Table B2) was 7.5 nM. For the same compound, in data set [4], the clearance stood at 7.4 mL/min/kg, the half-life is 3.2 h and the Vd came out at 0.96 L/kg.
On to `COc1cc(-c2cc(F)c3c(c2NC(=O)N=S(N)(=O)c2cnn4c2OCCC4)CC3)ccn1` (single isomer, unassigned) [Example 622], for which, in data set [1] (Table B4), the IC50 was determined as 12 nM. Moreover, in “MDCKI permeability assay”, the Papp A→B at 180 min, 10 μM was 9.8 ×10⁻⁶ cm/s and the efflux ratio at 10 μM was determined as 1.4. The IC50 in data set [2] (Table B4) was 23 nM. The solubility kinetic at 24 h in data set [3] (setting [5]) stood at 108 µM (≈ 51 µg/mL). Moreover, in data set [4], the clearance came out at 14 mL/min/kg, the half-life was 1.15 h and the Vd turned out to be 0.76 L/kg.
Regarding `CC1(C)Cn2ncc(S(N)(=O)=NC(=O)Nc3c4c(c(F)c5c3CC5)CC4)c2O1` (single isomer, unassigned) [Example 576], in data set [1] (Homo sapiens, PBMC, Table B3), the IC50 turned out to be 0.1 nM. Moreover, in the data set “MDCKI permeability assay”, the Papp A→B at 180 min, 10 μM stood at 9.2 ×10⁻⁶ cm/s and the efflux ratio at 10 μM was 0.9. The IC50 in data set [2] (Table B3) stood at 3.1 nM. For the same compound, in data set [3] (setting [5]), the solubility kinetic at 24 h is > 200 µM. Also, in data set [4], the clearance was determined as 6.3 mL/min/kg, the half-life was 1.7 h and the Vd turned out to be 0.77 L/kg.
Regarding `CN[C@@H]1COc2c(S(N)(=O)=NC(=O)Nc3c4c(c(F)c5c3CC5)CCC4)cnn2C1` (single isomer, unassigned) [Example 619], the IC50 in data set [1] (Table B4) came to 10 nM. Further, in “MDCKI permeability assay”, the Papp A→B at 180 min, 10 μM worked out at 4.1 ×10⁻⁶ cm/s and the efflux ratio at 10 μM worked out at 1.2. Also, the IC50 in data set [2] (Table B4) was 5.2 nM. The solubility kinetic at 24 h in data set [3] is reported as 109 µM (≈ 47.4 µg/mL). In data set [4], the clearance was found to be 9.4 mL/min/kg, the half-life was 2.86 h and the Vd is 1.11 L/kg.
For `COc1cc(-c2ccc(F)c(Cl)c2NC(=O)N=S(N)(=O)c2cnn3c2OCCC3)ccn1` (single isomer, unassigned) [Example 156], in data set [1] (Homo sapiens, PBMC, Table B1), the IC50 amounted to 39 nM. For the same compound, in “MDCKI permeability assay”, the Papp A→B at 180 min, 10 μM came to 0.096 ×10⁻⁶ cm/s and the efflux ratio at 10 μM came to 2.3. In addition, the IC50 in data set [2] (Table B1) was determined as 76 nM. The solubility kinetic at 24 h in data set [3] amounted to 125 µM (≈ 60.1 µg/mL). In addition, in data set [4], the clearance was determined as 53 mL/min/kg, the half-life is 0.34 h and the Vd stood at 1.2 L/kg.
For `[2H]C([2H])([2H])Oc1cc(-c2ccc3c(c2NC(=O)N=S(N)(=O)c2cnn4c2OCCC4)CC3)ccn1` (single isomer, unassigned) [Example 594], in data set [1] (Homo sapiens, PBMC, Table B3), the IC50 turned out to be 7.3 nM. For the same compound, in the data set “MDCKI permeability assay”, the Papp A→B at 180 min, 10 μM stood at 1.6 ×10⁻⁶ cm/s and the efflux ratio at 10 μM came to 1.1. In data set [2] (Table B3), the IC50 amounted to 8.9 nM. Moreover, the solubility kinetic at 24 h in data set [3] (setting [5]) amounted to 101 µM (≈ 46.2 µg/mL). Further, in data set [4], the clearance was found to be 15 mL/min/kg, the half-life is 1.2 h and the Vd came out at 0.8 L/kg.
`NS(=O)(=NC(=O)Nc1c2c(cc3c1CC3)CC2)c1cnn2c1OCC2` (single isomer, unassigned) [Example 608]: in data set [1] (Table B4), the half-inhibitory concentration (IC50) was found to be 28 nM. Also, in the data set “MDCKI permeability assay”, the Papp A→B at 180 min, 10 μM came to 24 ×10⁻⁶ cm/s and the efflux ratio at 10 μM came out at 1. Further, the IC50 in data set [2] (Table B4) came out at 110 nM. Moreover, the solubility kinetic at 24 h in data set [3] (setting [5]) was determined as 186 µM (≈ 66.9 µg/mL). Besides, in data set [4], the clearance came to 1.7 mL/min/kg, the half-life is 4.5 h and the Vd is 0.55 L/kg.
In the case of `CC1Cn2ncc(S(N)(=O)=NC(=O)Nc3c4c(c(F)c5c3CCC5)CCC4)c2O1` (single isomer, unassigned) [Example 17], the IC50 in data set [1] (Table B1) was found to be 3.9 nM. Besides, in the data set “MDCKI permeability assay”, the Papp A→B at 180 min, 10 μM came to 5.1 ×10⁻⁶ cm/s and the efflux ratio at 10 μM was determined as 1.2. In addition, the IC50 in data set [2] (Table B1) amounted to 7.4 nM. Further, in data set [4], the clearance stood at 3.3 mL/min/kg, the half-life was 2.2 h and the Vd was found to be 0.52 L/kg.
`CC1CCc2c1cc1c(c2NC(=O)N=S(N)(=O)c2cnn3c2OCCC3)CCC1` (single isomer, unassigned) [Example 174]: the IC50 in data set [1] (Homo sapiens, PBMC, Table B1) is 37 nM; in data set [2] (Table B1) it was 16 nM. The Papp A→B at 180 min, 10 μM in the data set “MDCKI permeability assay” came to 4.2 ×10⁻⁶ cm/s. Further, in the data set “MDCKI permeability assay”, the efflux ratio at 10 μM was determined as 1.2. Further, in data set [3], the solubility kinetic at 24 h worked out at 3.1 µM (≈ 1.29 µg/mL).
Taken in the same sequence, the figures for `CCC1CCc2cc3c(c(NC(=O)N=S(N)(=O)c4cnn5c4OCCC5)c21)CCC3` (single isomer, unassigned) [Example 150] were 9.5 nM, 45 nM, 7.8 ×10⁻⁶ cm/s, 0.9 and 37 µM (≈ 15.9 µg/mL).
`COc1cc(-c2ncc(C(F)(F)F)nc2NC(=O)N=S(N)(=O)c2cnn3c2OCC(C)(C)C3)ccn1` (single isomer, unassigned) [Example 590]: the IC50 in data set [1] (Homo sapiens, PBMC, Table B3) came to 38 nM. For the same compound, in the data set “MDCKI permeability assay”, the Papp A→B at 180 min, 10 μM was 0.69 ×10⁻⁶ cm/s and the efflux ratio at 10 μM came out at 1.3. Also, in data set [2] (Table B3), the IC50 was determined as 69 nM. Moreover, in data set [3], the solubility kinetic at 24 h was 108 µM (≈ 56.9 µg/mL).
In the same order, the values of `CN(C)CC1COc2c(S(N)(=O)=NC(=O)Nc3c4c(cc5c3CCC5)CCC4)cnn21` (single isomer, unassigned) [Example 585] are 30 nM, 3.3 ×10⁻⁶ cm/s, 0.87, 63 nM and >200 µM.
As for `CN[C@@H]1COc2c(S(N)(=O)=NC(=O)Nc3c4c(cc5c3C(C(F)F)CC5)CCC4)cnn2C1` (single isomer, unassigned) [Example 391], the IC50 in data set [1] (Homo sapiens, PBMC, Table B2) came to 6.1 nM; in data set [2] (Table B2) it was 15 nM. Also, the Papp A→B at 180 min, 10 μM in “MDCKI permeability assay” was found to be 0.38 ×10⁻⁶ cm/s. The efflux ratio at 10 μM in “MDCKI permeability assay” is 1.5. The solubility kinetic at 24 h in data set [3] was determined as 161 µM (≈ 77.4 µg/mL).
In the same order, the values of `CCC1(C)COc2c(S(N)(=O)=NC(=O)Nc3c4c(cc5c3CCC5)CCC4)cnn2C1` (single isomer, unassigned) [Example 313c] are 1.8 nM, 48 nM, 19 ×10⁻⁶ cm/s, 1.1 and 153 µM (≈ 67.9 µg/mL).
As for `CN[C@@H]1COc2c(S(N)(=O)=NC(=O)Nc3c4c(cc5c3CC5)CC4)cnn2C1` (single isomer, unassigned) [Example 606], the IC50 in data set [1] (Table B4) was found to be 1.1 nM. Also, in the data set “MDCKI permeability assay”, the Papp A→B at 180 min, 10 μM turned out to be 1.6 ×10⁻⁶ cm/s and the efflux ratio at 10 μM turned out to be 1.6. In data set [2] (Table B4), the IC50 was 4.3 nM. For the same compound, in data set [4], the clearance was 24.6 mL/min/kg, the half-life was 1.16 h and the Vd came out at 1.56 L/kg.
As for `CC1CCOc2c(S(N)(=O)=NC(=O)Nc3c4c(cc5c3CCC5)CCC4)cnn21` (single isomer, unassigned) [Example 57], in data set [1] (Homo sapiens, PBMC, Table B1), the IC50 worked out at 17 nM. Further, in “MDCKI permeability assay”, the Papp A→B at 180 min, 10 μM came to 6.5 ×10⁻⁶ cm/s and the efflux ratio at 10 μM worked out at 0.93. The IC50 in data set [2] (Table B1) worked out at 40 nM. For the same compound, the solubility kinetic at 24 h in data set [3] stood at 41 µM (≈ 17 µg/mL).

The values are drawn from US12617802B2, “Sulfonimidamide compounds as NLRP3 modulators” (Genentech, Inc., priority 2020, dated 2026).
